Where two headings read alike, the source gives them in different places.
Tests used:
CDK2/Cyclin E1 = CDK2/Cyclin E1 (Homo sapiens, UniProt P24941); experiment: CDK2/Cyclin E1 TR-FRET biochemical assay (0.060 mM ATP); details: 120 minutes reaction
Description: (§1) Compounds disclosed herein were tested for inhibition of CDK2/Cyclin E1 or CDK1/Cyclin B1 kinase in an assay based on the time-resolved fluorescence-resonance energy transfer (TR-FRET) methodology. The assay was carried out in 384-well low volume black plates in a reaction mixture containing CDK2/Cyclin E1 or CDK1/Cyclin B1, 0.060 mM ATP for CDK2/Cyclin E1 or 0.015 mM ATP for CDK1/Cyclin B1, 0.15 μM Rb (Ser780)-biotin substrate and 0-10 μM compound in buffer containing 50 mM HEPES pH7.0, 0.02% NaN3, 0.01% BSA, 0.1 mM Orthovanadate, 50 mM MgCl2, 1 mM DTT and 0.005% Tween-20. The kinase was incubated with compound for 60 minutes at room temperature and the reaction was initiated by the addition of ATP and Rb (Ser780)-biotin substrate. After reaction at room temperature for 120 minutes, an equal volume of stop/detection solution was added according to the manufacture's instruction (Cisbio Bioassays). The stop/detection solution contained Streptavidin-XL665 and Anti-pRb (Ser780) mAb-Eu Cryptate in Detection buffer (Cisbio Bioassays). Plates were incubated at room temperature for 60 minutes, and the TR-FRET signals (ex337 nm, em665 nm/620 nm) were recorded on a PHERAstar FSX plate reader (BMG Labtech). The inhibition percentage of CDK2/Cyclin E1 or CDK1/Cyclin B1 kinase activity in presence of increasing concentrations of compounds was calculated based on the ratio of fluorescence at 665 nm to that at 620 nm. The IC50 for each compound was derived from fitting the data to the four-parameter logistic equation by Dotmatics.

CDK1/Cyclin B1 = CDK1/Cyclin B1 (Homo sapiens, UniProt P06493); experiment: CDK1/Cyclin B1 TR-FRET biochemical assay (0.015 mM ATP); details: 120 minutes reaction
Description: as §1

HEK-293 cells = experiment: HEK-293 cell cytotoxicity detection (CellTiter-Glo); type: cell-based; details: incubation of 72 h, CellTiter-Glo luminescence
Description: HEK-293 cells were treated with compounds diluted in 0.4% DMSO, dilution was done according to the following protocol: (1) making 250× stock solution in DMSO from 10 mM by 4-fold dilution, total 8 doses were included; (2) making 2 solution in cell culture medium by transferring 1 μl 250× stock solution into 124 μl medium; (3) adding 50 μl of 2× solution to cells for incubation of 72 h.
25 μl of the CellTiter-Glo® Reagent [(PromegaCat #G9242)] was added to each well in the 96-well plate. The contents were mixed for 2 minutes on an orbital shaker to induce cell lysis. The plate was then allowed to incubate at room temperature for 10 minutes to stabilize luminescent signal. Luminescence was recorded on BMG PheraStar with luminescence protocol.
The IC50 value of a compound can be obtained by fitting the following equation: […]
Wherein, X and Y are known values, and IC50, Hillslope, Top and Bottom are the parameters obtained by fitting with software. Y is the inhibition percentage (calculated from the equation), X is the concentration of the compound; IC50 is the concentration of the compound when the 50% inhibition is reached. The smaller the IC50 value is, the stronger the inhibitory ability of the compound is. Vice versa, the higher the IC50 value is, the weaker the ability the inhibitory ability of the compound is; Hillslope represents the slope of the fitted curve, generally around 1*; Bottom represents the minimum value of the curve obtained by data fitting, which is generally 0%±20%; Top represents the maximum value of the curve obtained by data fitting, which is generally 100%±20%. The experimental data were fitted by calculating and analyzing with Dotmatics data analysis software.

CDK1/Cyclin B1, sequence (P06493 whole entry): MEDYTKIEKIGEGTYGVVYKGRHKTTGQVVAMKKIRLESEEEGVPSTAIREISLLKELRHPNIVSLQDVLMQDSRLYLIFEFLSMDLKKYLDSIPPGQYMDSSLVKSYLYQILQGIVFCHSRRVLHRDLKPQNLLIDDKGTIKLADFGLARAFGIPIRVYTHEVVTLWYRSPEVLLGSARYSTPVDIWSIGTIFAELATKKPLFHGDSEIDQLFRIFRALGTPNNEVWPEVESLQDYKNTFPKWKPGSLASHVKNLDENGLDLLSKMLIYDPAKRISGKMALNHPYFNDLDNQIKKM
CDK1/Cyclin B1, sequence (P14635 whole entry partner): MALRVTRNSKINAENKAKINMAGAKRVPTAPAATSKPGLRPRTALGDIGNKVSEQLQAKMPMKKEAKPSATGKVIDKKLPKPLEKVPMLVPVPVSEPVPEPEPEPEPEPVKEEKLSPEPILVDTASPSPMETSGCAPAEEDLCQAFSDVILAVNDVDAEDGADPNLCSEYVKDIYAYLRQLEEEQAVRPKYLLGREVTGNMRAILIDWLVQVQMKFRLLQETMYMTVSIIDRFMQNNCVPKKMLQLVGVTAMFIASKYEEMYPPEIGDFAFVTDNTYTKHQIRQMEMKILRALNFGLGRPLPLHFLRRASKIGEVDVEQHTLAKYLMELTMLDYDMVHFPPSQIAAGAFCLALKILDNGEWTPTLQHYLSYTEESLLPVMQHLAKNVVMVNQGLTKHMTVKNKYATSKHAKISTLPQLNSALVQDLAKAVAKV

IC50 (CDK2/Cyclin E1) [µM] | IC50 (CDK1/Cyclin B1) [µM] | SMILES | IC50 (HEK-293 cells; read-out: HEK293 IC50) [µM] | IC50 (HEK-293 cells; Homo sapiens, HEK293, 72 h) [µM]
0.0041 | 0.132 | CC(C)NC(=O)OC1CCC(c2cc(Nc3ccc4c(c3F)S(=O)(=O)CC4)n[nH]2)C1 (single isomer, unassigned) [Example 3a, cis-3-(3-((7-fluoro-1,1-dioxido-2,3-dihydrobenzo[b]thiophen-6-yl)amino)-1H-pyrazol-5-yl)cyclopentyl isopropylcarbamate] | 1.78 | 
0.0011 | 0.02 | CC1(NC(=O)O[C@H]2CC[C@@H](c3cc(Nc4ccc5c(c4F)S(=O)(=O)CC5)n[nH]3)C2)CC1 (relative stereo) [Example 6, cis-3-(3-((7-fluoro-1,1-dioxido-2,3-dihydrobenzo[b]thiophen-6-yl)amino)-1H-pyrazol-5-yl)cyclopentyl (1-methylcyclopropyl)carbamate] |  | 0.44
0.0003 | 0.0033 | CC1(NC(=O)O[C@H]2CC[C@@H](c3cc(Nc4ccc5c(c4F)CS(=O)(=O)C5)n[nH]3)C2)CC1 (relative stereo) [Example 11, cis-3-(3-((4-fluoro-2,2-dioxido-1,3-dihydrobenzo[c]thiophen-5-yl)amino)-1H-pyrazol-5-yl)cyclopentyl (1-methylcyclopropyl)carbamate] |  | 0.317
0.0019 | 0.031 | CC(C)NC(=O)OC1CCC(c2cc(Nc3ccc4c(c3F)S(=O)(=O)CC4)n[nH]2)C1 (single isomer, unassigned) [Example 3b, cis-3-(3-((7-fluoro-1,1-dioxido-2,3-dihydrobenzo[b]thiophen-6-yl)amino)-1H-pyrazol-5-yl)cyclopentyl isopropylcarbamate] | 0.677 | 
0.017 | 0.191 | CCCNC(=O)O[C@H]1CC[C@@H](c2cc(Nc3ccc4c(c3F)S(=O)(=O)CC4)n[nH]2)C1 (relative stereo) [Example 4, cis-3-(3-((7-fluoro-1,1-dioxido-2,3-dihydrobenzo[b]thiophen-6-yl)amino)-1H-pyrazol-5-yl)cyclopentyl propylcarbamate] |  | 8.59

Further lines, the compound ahead of its results:

SMILES | IC50 (CDK2/Cyclin E1) [µM] | IC50 (CDK1/Cyclin B1) [µM] | IC50 (HEK-293 cells; read-out: HEK293 IC50) [µM] | IC50 (HEK-293 cells; Homo sapiens, HEK293, 72 h) [µM]
CC(C)NC(=O)OC1CCC(c2cc(Nc3ccc4c(c3F)CCS4(=O)=O)n[nH]2)C1 (single isomer, unassigned) [Example 2b, cis-3-(3-((4-fluoro-1,1-dioxido-2,3-dihydrobenzo[b]thiophen-5-yl)amino)-1H-pyrazol-5-yl)cyclopentyl isopropylcarbamate] | 0.0048 | 0.207 | > 10 | 
CC(C)NC(=O)O[C@H]1CC[C@@H](c2cc(Nc3cc4c(cc3F)S(=O)(=O)CC4)n[nH]2)C1 (relative stereo) [Example 1, cis-3-(3-((6-fluoro-1,1-dioxido-2,3-dihydrobenzo[b]thiophen-5-yl)amino)-1H-pyrazol-5-yl)cyclopentyl isopropylcarbamate] | 0.049 | 1.14 |  | > 10
CC(C)NC(=O)O[C@@H]1CC[C@H](c2cc(Nc3ccc4c(c3F)CS(=O)(=O)C4)n[nH]2)C1 (single isomer, unassigned) [Example 8a, cis-3-(3-((4-fluoro-2,2-dioxido-1,3-dihydrobenzo[c]thiophen-5-yl)amino)-1H-pyrazol-5-yl)cyclopentyl isopropylcarbamate] | 0.0007 | 0.03 |  | 0.514
CC(C)NC(=O)OC1CCC(c2cc(Nc3ccc4c(c3F)CCS4(=O)=O)n[nH]2)C1 (single isomer, unassigned) [Example 2a, cis-3-(3-((4-fluoro-1,1-dioxido-2,3-dihydrobenzo[b]thiophen-5-yl)amino)-1H-pyrazol-5-yl)cyclopentyl isopropylcarbamate] | 0.016 | 0.591 |  | > 10
CC(C)NC(=O)O[C@H]1CC[C@@H](c2cc(Nc3ccc4c(c3)CS(=O)(=O)C4)n[nH]2)C1 (relative stereo) [Example 7, cis-3-(3-((2,2-dioxido-1,3-dihydrobenzo[c]thiophen-5-yl)amino)-1H-pyrazol-5-yl)cyclopentyl isopropylcarbamate] | 0.0011 | 0.012 |  | 0.684
CC[C@H](C)NC(=O)OC1CCC(c2cc(Nc3ccc4c(c3F)CS(=O)(=O)C4)n[nH]2)C1 (stereo in doubt) [Example 10, cis-3-(3-((4-fluoro-2,2-dioxido-1,3-dihydrobenzo[c]thiophen-5-yl)amino)-1H-pyrazol-5-yl)cyclopentyl ((S)-sec-butyl)carbamate] | 0.0004 | 0.005 |  | 0.203
CC(C)NC(=O)O[C@H]1CC[C@@H](c2cc(Nc3ccc4c(c3F)CS(=O)(=O)C4)n[nH]2)C1 (relative stereo) [Example 8b, cis-3-(3-((4-fluoro-2,2-dioxido-1,3-dihydrobenzo[c]thiophen-5-yl)amino)-1H-pyrazol-5-yl)cyclopentyl isopropylcarbamate] | 0.0005 | 0.0079 |  | 0.463

From US20260176282A1, “BICYCLIC COMPOUNDS AS CDK INHIBITORS” (BEONE MEDICINES I GMBH, priority 2023, published 2026)
